Measured values from US20240325517A1, “COMPOSITIONS AND METHODS TARGETING FILAMENTOUS BACTERIOPHAGE” (THE UNIVERSITY OF MONTANA, priority 2020, published 2024).
Read-outs that look alike come from different tables or passages of the source. Where no end group is shown, it is not given here.

Assays:
CoaBa1 = test: Total IgG ELISA, plate coated with CoaBa1 (Example 11); type: in vivo, C57/BL/6 mice; conditions: for cross-reactivity to CoaBa1 (in words): vaccination, Tables 16 and 17 cited in text; for Total IgG ELISA plate coated with CoaBa1: 1 μg conjugate IM, with 1 μg Adj A where named, booster day 14, serum 14 days post-secondary
Method: (§1) Female C57/BL/6 mice aged 6-8 weeks old (8 per group) were vaccinated intramuscularly with 1 μg of CoaBa-CRM or […] of CoaBb-CRM conjugate in combination with […] dose of TLR 4 agonist Adjuvant A. A booster with 1 μg dose of Adjuvant A adjuvant combination with 1 μg of respective conjugate was administered 14 days post primary. ELISA data is from serum collected 14 days post-secondary vaccination boost. CoaBa1 within-clade cross reactive immunity against coaBa2 was determined. (Tables 15 and 16). Clade A CoaBa cross-reactive immunity against Clade B CoaBb epitope was determined. (Table 17).

CoaBb1 = test: Total IgG ELISA, plate coated with CoaBb1 (Example 11); type: in vivo, C57/BL/6 mice; conditions: 1 μg conjugate IM, with 1 μg Adj A where named; booster day 14; serum 14 days post-secondary
Method: as §1

[1] = cited from earlier work
CoaBa2 = test: Total IgG ELISA, plate coated with CoaBa2 (Example 11); type: in vivo, C57/BL/6 mice; conditions: for Total IgG ELISA plate coated with CoaBa2: 1 μg conjugate IM, with 1 μg Adj A where named, booster day 14, serum 14 days post-secondary
Method: as §1

CoaBa1 hapten = test: Adjuvant system for CoaB-CRM conjugate, total serum IgG ELISA (Example 9); type: in vivo, C57/BL/6 mice; conditions: for Mean Log10 total serum IgG titer: booster day 14, serum 14 days post-secondary
Method: The lead CoaB vaccines consist of a peptide hapten conjugated to CRM197. To determine whether TLR7 and TLR4 adjuvants would provide a beneficial effect on antibody titres or provide a dose sparing effect, female C57/BL/6 mice aged 6-8 weeks old (10 per group) were vaccinated intramuscularly with 1 μg of CoaBa-CRM conjugate in combination with indicated dose of (Adjuvant B), a TLR 7/8 adjuvant, and or (Adjuvant A) a TLR4 adjuvant. A booster with respective dose of adjuvant combination with […] of CoaBa-CRM conjugate was administered 14 days post primary. ELISA data is from serum collected 14 days post-secondary vaccination boost.

CoaBa [2] = test: Anti-CoaBa IgG subtypes induced with TLR4 agonist, ELISA (Example 10); type: in vivo, C57/BL/6 mice; set-up: Mean total IgG / Mean IgG1 / Mean IgG2b: unit not given here; conditions: for Mean IgG1 / Mean IgG2b / Mean total IgG: booster day 14, serum 14 days post-secondary
Method: Female C57/BL/6 mice aged 6-8 weeks old (5 per group) were vaccinated intramuscularly with […] of CoaBa-CRM conjugate in combination with indicated dose of TLR4 agonist Adjuvant A. A booster with respective dose of adjuvant combination with 1 μg of CoaBa-CRM conjugate was administered 14 days post primary. ELISA data are from serum collected 14 days postsecondary vaccination boost. (A) Total IgG, (B) IgG1, (C) IgG2a isotypes are shown.

CoaBa [3] = test: as above; type: in vivo, C57/BL/6 mice; set-up: unit not given here; conditions: booster day 14, serum 14 days post-secondary
sheep red blood cells = conditions: cited from earlier work
[4] = biological target: CoaBa (Pseudomonas aeruginosa filamentous (Pf) bacteriophage); test: anti-CoaBa serum ELISA; 14 days post boost; C57BL/6
[5] = 0.01 μg Adj A with 1 μg CoaBa-CRM conjugate IM
[6] = 0.1 μg Adj A with 1 μg CoaBa-CRM conjugate IM
[7] = 1 μg Adj A with 1 μg CoaBa-CRM conjugate IM
[8] = 0.0001 μg Adj A with 1 μg CoaBa-CRM conjugate IM
[9] = 0.001 μg Adj A with 1 μg CoaBa-CRM conjugate IM
[10] = 10 μg Adj A with 1 μg CoaBa-CRM conjugate IM

In the case of “CoaBb1: CoaBb-CRM conjugate vaccine, subclade b1 (ADSLIDETTKEVLTQAGTDG; also: conjugated to CRM carrier, site not given here)”, the “cross-reactivity to CoaBa1 (in words)” value (CoaBa1) is reported as “did not produce cross-reactive immunity to clade A subtypes CoaBa1” and the “Total IgG ELISA plate coated with CoaBb1” value (CoaBb1) is reported as 0.5.
For QS-18, the critical micellar concentration ([1]; in phosphate buffered saline) is listed as 0.02 % (w/v) and the critical micellar concentration ([1]; in water) is listed as 0.04 % (w/v).
With “CoaBa2: CoaBa2 hapten-CRM197 conjugate vaccine (GSVIDTSAVEAAITEGKGD; not fully specified)” the “Total IgG ELISA plate coated with CoaBa1” value (CoaBa1) was 0.50, the “cross-reactivity to CoaBa1 (in words)” value (CoaBa1) was “produced cross-reactivity to CoaBa1-CRM197” and the “Total IgG ELISA plate coated with CoaBa2” value (CoaBa2) was 0.5.
For `CCCCCCCCCCC[C@H](CC(=O)NCCO[C@@H]1OC(CO)[C@@H](OS(=O)(=O)O)[C@H](NC(=O)C[C@@H](CCCCCCCCCCC)OC(=O)CCCCCCCCC)C1NC(=O)C[C@@H](CCCCCCCCCCC)OC(=O)CCCCCCCCC)OC(=O)CCCCCCCCC` (stereo partly shown) [Adjuvant A], the “Mean Log10 total serum IgG titer” value (CoaBa1 hapten; [5]) was 3.74 Log10, the “Mean Log10 total serum IgG titer” value (CoaBa1 hapten; [6]) was 4.55 Log10 and the “Mean Log10 total serum IgG titer” value (CoaBa1 hapten; [7]) was 5.12 Log10. The “antibody titers against the CoaBa1 hapten (in words)” value (CoaBa1 hapten; vaccine dose experiments with 1 μg CoaBa-CRM conjugate) was “produced the highest antibody titers against the CoaBa1 hapten”, the “Mean IgG1” value (CoaBa [2]; [8]) was 0.95 and the “Mean IgG2b” value (CoaBa [2]; [8]) was 1.02. The “Mean total IgG” value (CoaBa [2]; [8]) was 1.27, the “Mean IgG1” value (CoaBa [2]; [9]) was 1.86 and the “Mean total IgG” value (CoaBa [2]; [9]) was 2.38. The “Mean IgG1” value (CoaBa [2]; [5]) was 1.99, the “Mean total IgG” value (CoaBa [2]; [5]) was 3.15 and the “Mean IgG1” value (CoaBa [2]; [6]) was 2.45. For the same compound, the “Mean total IgG” value (CoaBa [2]; [6]) was 4.00, the “Mean IgG1” value (CoaBa [2]; [7]) was 3.60 and the “Mean IgG2b” value (CoaBa [2]; [7]) was 4.31. For the same compound, the “Mean total IgG” value (CoaBa [2]; [7]) was 4.19, the “Mean IgG1” value (CoaBa [2]; [10]) was 2.88 and the “Mean total IgG” value (CoaBa [2]; [10]) was 4.25. The “IgG subtype analysis (in words)” value (CoaBa [2]; adjuvanting CoaBa with Adjuvant A) was “elicited both IgG1 and IgG2b subclasses”, the “Mean IgG2b” value (CoaBa [3]; [9]) was 1.22 and the “Mean IgG2b” value (CoaBa [3]; [5]) was 2.45. The “Mean IgG2b” value (CoaBa [3]; [6]) was 3.90 and the “Mean IgG2b” value (CoaBa [3]; [10]) was 3.31.
With “CoaBa1: CoaBa1 hapten-CRM197 conjugate vaccine (GVIDTSAVESAITDGQGD; not fully specified)” the “Total IgG ELISA plate coated with CoaBa1” value (CoaBa1) was 0.50, the “Total IgG ELISA plate coated with CoaBa2” value (CoaBa2) was 0.5 and the “cross-reactivity to CoaBa2-CRM197 (in words)” value (CoaBa2; vaccination, Table 15 cited in text) was “produced cross-reactivity to CoaBa2-CRM197”. The “Total IgG ELISA plate coated with CoaBb1” value (CoaBb1) was 0.5.
In the case of QS-17, the “concentrations causing hemolysis of sheep red blood cells” value (sheep red blood cells) is given as at least 25000 ng/mL, the critical micellar concentration ([1]; in phosphate buffered saline) is given as 0.03 % (w/v) and the critical micellar concentration ([1]; in water) is given as 0.06 % (w/v).
In the case of QS-21, the “concentrations causing hemolysis of sheep red blood cells” value (sheep red blood cells) is listed as at least 25000 ng/mL, the critical micellar concentration ([1]; in phosphate buffered saline) is listed as ~0.02 % (w/v) and the critical micellar concentration ([1]; in water) is listed as “about 0.03 % (w/v)”.
For serum of naïve (unvaccinated) mice, the Mean IgG1 [4] was 0.5, the Mean IgG2b [4] was 0.5 and the Mean total IgG [4] was 0.5.
